Values after ≈ are worked out from the molar mass of the structure shown. Like-named read-outs stand apart in the source and are kept apart here.
What was measured:
[1] = test system: Mtb strain mc^2-7000; experiment: microbe, parasite or virus in culture; assay type: cell-based, Mycobacterium tuberculosis; conditions: 6 days incubation at 37° C., resazurin, read on the 7th day
[2] = test system: S. cerevisiae
[3] = molecular target: Mtb AccD6 (Mycobacterium tuberculosis, UniProt P9WQH5); experiment: biochemical; assay type: biochemical; conditions: for IC50: 300 μM malonyl-CoA, inhibitor 10 μM to 2000 μM; for inhibition at 20 µM: read-out: inhibition at 20 uM
[4] = test system: human fibroblast
[5] = Mycobacterium tuberculosis, 144 h, read-out: MIC

Mtb AccD6, sequence (P9WQH5 whole entry, looked up): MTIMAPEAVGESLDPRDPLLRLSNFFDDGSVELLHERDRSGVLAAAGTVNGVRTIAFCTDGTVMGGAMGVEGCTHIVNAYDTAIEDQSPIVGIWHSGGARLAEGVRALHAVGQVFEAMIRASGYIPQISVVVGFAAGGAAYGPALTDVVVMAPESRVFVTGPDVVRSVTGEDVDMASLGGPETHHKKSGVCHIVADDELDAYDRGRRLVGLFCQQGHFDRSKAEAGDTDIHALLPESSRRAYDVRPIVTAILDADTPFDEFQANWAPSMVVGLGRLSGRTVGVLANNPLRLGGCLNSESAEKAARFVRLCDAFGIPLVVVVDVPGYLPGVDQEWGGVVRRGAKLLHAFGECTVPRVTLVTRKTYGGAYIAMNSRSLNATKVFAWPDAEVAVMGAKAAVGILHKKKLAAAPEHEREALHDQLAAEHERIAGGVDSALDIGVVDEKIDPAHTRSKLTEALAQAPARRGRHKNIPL

| Structure (SMILES) | MIC [1, 5] | concentrations at which not toxic, s. cerevisiae cytotoxicity [2] | IC50 ([3]; read-out: IC50) | concentrations at which not toxic, human fibroblast cytotoxicity [4] | inhibition at 20 µM [3] | MIC [1] | IC50 [3] |
| --- | --- | --- | --- | --- | --- | --- | --- |
| CC(C)(Oc1ccc(Oc2cnc3cc(Cl)ccc3n2)cc1)C(=O)O [NZ-315, 2-{4-[(6-chloroquinoxalin-2-yl)oxy]phenoxy}-2-methylpropanoic acid] | 25 µM (≈ 8.97 µg/mL) | ≥ 100 µM | 1.7 µM | ≥ 100 µM | – | – | – |
| CC(C)(Oc1ccc(Oc2nc3ccc(Cl)cc3s2)cc1)C(=O)O [NZ-318, 2-{4-[(6-chloro-1,3-benzothiazol-2-yl)oxy]phenoxy}-2-methylpropanoic acid] | 12 µM (≈ 4.37 µg/mL) | ≥ 100 µM | 1.5 µM | ≥ 100 µM | – | – | – |
| CONC(=O)C(C)(C)Oc1ccc(Oc2nc3ccc(Cl)cc3s2)cc1 [NZ-319, 2-{4-[(6-chloro-1,3-benzothiazol-2-yl)oxy]phenoxy}-N-methoxy-2-methylpropanamide] | 6 µM (≈ 2.36 µg/mL) | ≥ 100 µM | 20 µM | ≥ 100 µM | – | – | – |
| CC(C)(C)OC(=O)Nc1ccc(Oc2cnc3cc(Cl)ccc3n2)cc1 [NZ-321, tert-butyl N-{4-[(6-chloroquinoxalin-2-yl)oxy]phenyl}carbamate] | 50 µM (≈ 18.6 µg/mL) | ≥ 100 µM | 20 µM | ≥ 100 µM | – | – | – |
| O=C(COc1ccc(Oc2cnc3cc(Cl)ccc3n2)cc1)NOCC1CC1 [NZ-323, 2-{4-[(6-chloroquinoxalin-2-yl)oxy]phenoxy}-N-(cyclopropylmethoxy)acetamide] | 6 µM (≈ 2.4 µg/mL) | ≥ 100 µM | 3.6 µM | ≥ 100 µM | – | – | – |
| CC(C)ONC(=O)COc1ccc(Oc2cnc3cc(Cl)ccc3n2)cc1 [NZ-326, 2-{4-[(6-chloroquinoxalin-2-yl)oxy]phenoxy}-N-(propan-2-yloxy)acetamide] | 3 µM (≈ 1.16 µg/mL) | ≥ 100 µM | 2.5 to 4.4 µM | ≥ 100 µM | – | – | – |
| CC(C)NC(=O)C(C)c1ccc(Oc2nc3ccc(Cl)cc3s2)cc1 (stereo not drawn) [NZ-327, 2-{4-[(6-chloro-1,3-benzothiazol-2-yl)oxy]phenyl}-N-(propan-2-yl)propanamide] | 12 µM (≈ 4.5 µg/mL) | ≥ 100 µM | 0.3 µM | ≥ 100 µM | – | – | – |
| COC(=O)C(C)c1ccc(Oc2nc3ccc(F)cc3s2)cc1 (stereo not drawn) [NZ-328, methyl 2-{4-[(6-fluoro-1,3-benzothiazol-2-yl)oxy]phenyl}propanoate] | 12 µM (≈ 3.98 µg/mL) | ≥ 100 µM | 10 µM | ≥ 100 µM | – | – | – |
| CC(C(=O)O)c1ccc(Oc2nc3ccc(F)cc3s2)cc1 (stereo not drawn) [NZ-329, 2-{4-[(6-fluoro-1,3-benzothiazol-2-yl)oxy]phenyl}propanoic acid] | 12 µM (≈ 3.81 µg/mL) | ≥ 100 µM | 0.37 µM | ≥ 100 µM | – | – | – |
| COc1ccc2nc(Oc3ccc(C(C)C(=O)O)cc3)sc2c1 (stereo not drawn) [NZ-334, 2-{4-[(6-methoxy-1,3-benzothiazol-2-yl)oxy]phenyl}propanoic acid] | 25 µM (≈ 8.23 µg/mL) | ≥ 100 µM | 10 µM | ≥ 100 µM | – | – | – |
| O=C(O)C(O)c1ccc(Oc2nc3ccc(Cl)cc3s2)cc1 (stereo not drawn) [NZ-337, 2-{4-[(6-chloro-1,3-benzothiazol-2-yl)oxy]phenyl}-2-hydroxyacetic acid] | 25 µM (≈ 8.39 µg/mL) | ≥ 100 µM | 2.3 µM | ≥ 100 µM | – | – | – |
| COc1ccc2nc(Oc3ccc(NC(=O)NC(C)C)cc3)sc2c1 [NZ-361, 1-{4-[(6-methoxy-1,3-benzothiazol-2-yl)oxy]phenyl}-3-(propan-2-yl)urea] | 3.2 µM (≈ 1.14 µg/mL) | ≥ 100 µM | – | ≥ 100 µM | 19% | – | – |
| CC(C)NC(=O)Nc1ccc(Oc2nc3ccc(O)cc3s2)cc1 [NZ-362, 1-{4-[(6-hydroxy-1,3-benzothiazol-2-yl)oxy]phenyl}-3-(propan-2-yl)urea] | 6.5 µM (≈ 2.23 µg/mL) | ≥ 100 µM | – | ≥ 100 µM | 20% | – | – |
| CC(C(=O)N1CCNCC1)c1ccc(Oc2nc3ccc(Cl)cc3s2)cc1 (stereo not drawn) [NZ-364, 2-{4-[(6-chloro-1,3-benzothiazol-2-yl)oxy]phenyl}-1-(piperazin-1-yl)propan-1-one] | 1.34 µM (≈ 0.539 µg/mL) | ≥ 100 µM | – | ≥ 100 µM | 20% | – | – |
| CC(C(=O)N1CCOCC1)c1ccc(Oc2nc3ccc(Cl)cc3s2)cc1 (stereo not drawn) [NZ-365, 2-{4-[(6-chloro-1,3-benzothiazol-2-yl)oxy]phenyl}-1-(morpholin-4-yl)propan-1-one] | 18.9 µM (≈ 7.61 µg/mL) | 50 to 100 µM | 6.2 µM | ≥ 100 µM | – | – | – |
| CC(C(=O)N1CCN(C)CC1)c1ccc(Oc2nc3ccc(Cl)cc3s2)cc1 (stereo not drawn) [NZ-366, 2-{4-[(6-chloro-1,3-benzothiazol-2-yl)oxy]phenyl}-1-(4-methylpiperazin-1-yl)propan-1-one] | 0.56 µM (≈ 0.233 µg/mL) | 25 to 50 µM | 4.9 µM | 25 to 50 µM | – | – | – |
| CC(C(=O)N(C)C)c1ccc(Oc2nc3ccc(Cl)cc3s2)cc1 (stereo not drawn) [NZ-368, 2-{4-[(6-chloro-1,3-benzothiazol-2-yl)oxy]phenyl}-N,N-dimethylpropanamide] | 2.07 µM (≈ 0.747 µg/mL) | 25 to 50 µM | 3.6 µM | ≥ 100 µM | – | – | – |
| CC(C(=O)NCCO)c1ccc(Oc2nc3ccc(Cl)cc3s2)cc1 (stereo not drawn) [NZ-370, 2-{4-[(6-chloro-1,3-benzothiazol-2-yl)oxy]phenyl}-N-(2-hydroxyethyl)propanamide] | 1.8 µM (≈ 0.678 µg/mL) | ≥ 100 µM | 1 µM | ≥ 100 µM | – | – | – |
| CC(C(=O)NC(CO)CO)c1ccc(Oc2nc3ccc(Cl)cc3s2)cc1 (stereo not drawn) [NZ-371, 2-{4-[(6-chloro-1,3-benzothiazol-2-yl)oxy]phenyl}-N-(1,3-dihydroxypropan-2-yl)propanamide] | 20 µM (≈ 8.13 µg/mL) | ≥ 100 µM | 0.86 µM | ≥ 100 µM | – | – | – |
| CC(C)NC(=O)Nc1ccc(Oc2nc3cc(F)ccc3s2)cc1 [NZ-373, 1-{4-[(5-fluoro-1,3-benzothiazol-2-yl)oxy]phenyl}-3-(propan-2-yl)urea] | – | ≥ 100 µM | 1.66 µM | ≥ 100 µM | – | Not Active | – |
| CC(C)NC(=O)Nc1ccc(Oc2nc3c(F)cccc3s2)cc1 [NZ-374, 1-{4-[(4-fluoro-1,3-benzothiazol-2-yl)oxy]phenyl}-3-(propan-2-yl)urea] | – | ≥ 100 µM | – | ≥ 100 µM | – | Not Active | Not Active |
| CC(C)NC(=O)Nc1ccc(Oc2nc3cc(Cl)ccc3s2)cc1 [NZ-376, 1-{4-[(5-chloro-1,3-benzothiazol-2-yl)oxy]phenyl}-3-(propan-2-yl)urea] | – | ≥ 100 µM | 0.874 µM | ≥ 100 µM | – | Not Active | – |
| CC(C)NC(=O)Nc1ccc(Oc2nc3ccc(C#N)cc3s2)cc1 [NZ-377, 1-{4-[(6-cyano-1,3-benzothiazol-2-yl)oxy]phenyl}-3-(propan-2-yl)urea] | – | ≥ 100 µM | 7.9 µM | ≥ 100 µM | – | Not Active | – |
| CCOC(=O)c1ccc2nc(Oc3ccc(NC(=O)NC(C)C)cc3)sc2c1 [NZ-378, ethyl 2-(4-{[(propan-2-yl)carbamoyl]amino}phenoxy)-1,3-benzothiazole-6-carboxylate] | 2.2 µM (≈ 0.879 µg/mL) | ≥ 100 µM | – | ≥ 100 µM | – | – | Not Active |
